Data taken from paper PMC9394307, “Discovery of Putative Dual Inhibitor of Tubulin and EGFR by Phenotypic Approach on LASSBio-1586 Homologs” (Pharmaceuticals, 2022).
Read-outs that look alike come from different tables or passages of the source.

Columns and labels:
[1] = system: LoVo; assay: MTT cell viability assay, LoVo; type: cell-based; settings: Homo sapiens, 48 h, value (95% CI)
[2] = system: SF-295; set-up: method as in PMID 24614859, PMID 30006065, PMID 25564377; settings: cited from earlier work
[3] = system: HCT-116; set-up: method as in PMID 24614859, PMID 30006065, PMID 25564377; settings: cited from earlier work
[4] = system: H292; assay: MTT cell viability assay, H292; type: cell-based, human; settings: Homo sapiens, MTT, value (95% CI), read-out: CC50 (µM) (CI) H292
Method: (§1) The cytotoxic activity of compounds 3–13 was determined based on an MTT assay against different human tumor cell lines, using LASSBio-1586 (2), LASSBio-1735 (3), CA-4 (1) and pelitinib as standards (Table 2). To determine the cytotoxic selectivity index, compounds were also evaluated toward human lymphocytes (Table 3).
(§2) The target compounds were tested (0.0001–100 µM) for cytotoxic activity against selected human cancer cell lines, such as HL-60 (acute promyelocytic leukemia), MCF-7 (mammary adenocarcinoma), PC-3 (prostate adenocarcinoma), H1975 (non-small cell lung cancer—EGFR^L858R+T790M), PC-9 (non-small cell lung cancer—EGFR^L858R) H292 (mucoepidermoid pulmonary carcinoma—EGFR wild type), LoVo (colorectal adenocarcinoma—EGFRwild type) and GM16000 (lymphocyte). All the human cancer cell lines were purchased from Cell Bank of Rio de Janeiro—BCRJ. They were cultured in RPMI 1640 medium with 10% (v/v) FBS, 2 mM glutamine, at 37 °C in a humidified incubator containing 5% CO2.
The cytotoxicity of the compounds was evaluated by the MTT assay. […] For lymphocytic lines, a density of 0.3 × 10^6 cells/mL was used. Afterwards they were treated with varying concentrations of the target compounds 2–12 (0.0001–100 µM), CA-4 (1) and pelitinib at 37 °C, in triplicate. The medium was incubated with 20 μL of 5 mg/mL MTT solution for 3 h in a humidified incubator containing 5% CO2 [11].
(§3) The purple-colored formazan crystals formed in the wells were dissolved in DMSO and their absorbance was measured at 595 nm with a microplate reader (SpectraMax M5, Molecular Devices).

[5] = MTT cell viability assay, GM16000 lymphocytes; type: cell-based; settings: GM16000 lymphocyte cells (non-tumor), human lymphocytes, value (95% CI)
Method: as §1
To establish the cytotoxic selective index (SI) of LASSBio-1586 homologs, they were studied on human lymphocyte cell lines (GM16000), using the MTT assay. The SI was calculated by the ratio between the CC50 on tumor and non-tumor cell lines. Although there is no consensus, values of SI ≥ 10 is considered satisfactory to assign safety to a new cytotoxic agent. This value means that the compound is more than ten times more cytotoxic to the tumor cell line than to normal cell line.
as §2
(§4) The cytotoxicity of the compounds was evaluated by the MTT assay. The cell lines were cultured in 96 well plates for 72 h with a density of 0.1 × 10^5 cells/mL to 0.7 × 10^5 cells/mL to adherent cell lines. For lymphocytic lines, a density of 0.3 × 10^6 cells/mL was used. Afterwards they were treated with varying concentrations of the target compounds 2–12 (0.0001–100 µM), CA-4 (1) and pelitinib at 37 °C, in triplicate. The medium was incubated with 20 μL of 5 mg/mL MTT solution for 3 h in a humidified incubator containing 5% CO2 [11].
as §3

[6] = system: β-tubulin; set-up: method as in PMID 24614859, PMID 30006065, PMID 25564377; settings: cited from earlier work
[7] = system: PC-3; assay: MTT cell viability assay, PC-3; type: cell-based; settings: Homo sapiens, PC-3; MTT, 72 h; value (95% CI); read-out: CC50 (µM) (CI) PC-3
Method: as §1, §2, §4, §3

[8] = system: H1975 cells; assay: Immunofluorescence of β-tubulin / microtubules; type: cell-based, human; settings: H1975, 48 h, CA-4 0.3 µM, vincristine 0.5 µM, taxol 0.1 µM, LASSBio-1586 10 µM, LASSBio-1735 0.5 µM, LASSBio-2070 4.5 µM, LASSBio-2074 20 µM
Method: Antitubulin agents have been broadly classified into destabilizing or stabilizing agents, based on their interference with the dynamic balance of polymerization or depolymerization of microtubules. […] CA-4 (1, 0.3 µM), vincristine (0.5 µM) and taxol (0.1 µM) were used as standard controls.
After incubation, cells were rinsed with PBS and fixed with 4% paraformaldehyde in PBS for 10 min at room temperature. They were then permeabilized with 0.5% Triton-X 100 in PBS 3 times for 10 min. The same solution was used for all subsequent washing steps. Cells were incubated with an anti-beta-tubulin antibody for 1 h at 37 °C. After incubation, cells were washed for 30 min and incubated with Alexa Fluor® 488, conjugated secondary antibody for 1 h at 37 °C, and nuclei were labeled with DAPI (0.1 mg/mL in 0.9% NaCl).
Live cultured cells grown in coverslips were mounted in Prolong Gold solution (Molecular Probes, USA) and were imaged on a Leica TCS SPE confocal microscope (Leica Microsystems, Germany) using 63x 1.3 N.A. oil immersion and the images acquired by the LAS X software. Cell morphology, focusing on the microtubules was analyzed, qualitatively, using the public domain NIH ImageJ Program (developed at the National Institutes of the USA Health and available on the internet at http://imagej.nih.gov/ij/ (accessed on 1 September 2021).

[9] = system: HL-60; set-up: method as in PMID 24614859; settings: cited from earlier work
[10] = system: EGFR in PC-9 cell line (EGFR^L858R); assay: Guava Muse EGFR-RTK Activation Dual Detection Kit, flow cytometry; type: cell-based, human; settings: PC-9, LASSBio-2070 0.03 µM
Method: Flow cytometry was applied to help elucidate the mechanism of action of the studied compounds, both to verify the cell cycle phase and to verify the action on EGFR protein kinase.
The anti-tubulin effect was evaluated by seeding H1975, H292 and PC-9 into 6-well plates at a density of 2 × 10^5 per well. The cells were treated with the selected compounds for 72 h. Cells were harvested and stained according to the protocols of The Guava Muse® Cell Cycle Kit (MCH100106) to quantitatively measure the percentage of cells in the G2/M phases of the cell cycle and the EGFR-RTK Activation Dual Detection Kit (MCH200102) (Luminex®) to measure EGFR phosphorylation in relation to total EGFR expression in the cell population, according to the manufacturer’s instructions for use in test kits using a Guava Muse® Cell Analyzer (Luminex®). Each experiment was performed at least three times independently.

Row | Compound | CC50 [1] [µM] | proliferation of SF-295 in the Hollow Fiber Assay [2] | proliferation of HCT-116 in the Hollow Fiber Assay [3] | CC50 ([4]; NCI-H292, 48 h, 48 h) [µM] | CC50 ([4]; NCI-H292, 72 h, 72 h) [µM] | CC50 at 72 h [5] [µM] | ability to inhibit β-tubulin [6] | CC50 [7] [µM] | cell morphology after treatment [8] | effect on microtubules (stabilizing / destabilizing profile) [8] | effect on microtubules (stabilizing / destabilizing profile) ([8]; listed as 2 (LASSBio-1586)) | cytotoxic potency against HL-60 compared with LASSBio-1586 (2) [9] | effect on microtubules (stabilizing / destabilizing profile) ([8]; listed as 3 (LASSBio-1735)) | modulation of EGFR activity in a phenotypic model [10]
1 | COc1cc(C(=O)N/N=C/c2ccccc2)cc(OC)c1OC [LASSBio-1586 (2), (E)-N’-benzylidene-3,4,5-trimetoxybenzohydrazide] | 1.72 | able to decrease proliferation | able to decrease proliferation | 2.19 | 1.4 | 1.51 | confirmed | 1.62 | more spread-out morphology | cell morphology similar to microtubule-stabilizing drugs | microtubule destabilizing behavior |  |  | 
2 | COc1cc(C(=O)N(C)/N=C/c2ccccc2)cc(OC)c1OC [LASSBio-1735 (3), (E)-N’-benzylidene-3,4,5-trimethoxy-N-methylbenzohydrazide] | 0.479 |  |  | 0.152 | 0.25 | 0.131 |  | 0.201 | more spread-out morphology | cell morphology similar to microtubule-stabilizing drugs |  | cytotoxic potency superior to LASSBio-1586 (2) | microtubule destabilizing behavior | 
3 | COc1cc(C(=O)N(Cc2ccccc2)/N=C/c2ccccc2)cc(OC)c1OC [LASSBio-2070 (10), (E)-N-benzyl-N’-benzylidene-3,4,5-trimethoxybenzohydrazide] | 2.12 |  |  | 0.147 | 0.883 | 1.05 |  | 0.361 | rounded shape | typical response of microtubule destabilizing agents |  |  |  | inhibiting the phosphorylation of EGFR
4 | CCOC(=O)CN(/N=C/c1ccccc1)C(=O)c1cc(OC)c(OC)c(OC)c1 [LASSBio-2074 (11), Ethyl (E)-N-(benzylideneamino)-N-(3,4,5-trimethoxybenzoyl)glycinate] | 2.64 |  |  | 0.593 | 0.75 | 4.19 |  | 1.36 | more spread-out morphology | cell morphology similar to microtubule-stabilizing drugs |  |  |  | 
